Data taken from article doi:10.1101/2023.09.03.556088, “Protein coopted from a phage restriction system dictates orthogonal cell division plane selection in Staphylococcus aureus” (bioRxiv, 2023).

B1: FtsZ (purified recombinant untagged S. aureus FtsZ) (natural protein, UniProt P0A031 1-390, looked up)
chain: MLEFEQGFNHLATLKVIGVGGGGNNAVNRMIDHGMNNVEFIAINTDGQALNLSKAESKIQIGEKLTRGLGAGANPEIGKKAAEESREQIEDAIQGADMVFVTSGMGGGTGTGAAPVVAKIAKEMGALTVGVVTRPFSFEGRKRQTQAAAGVEAMKAAVDTLIVIPNDRLLDIVDKSTPMMEAFKEADNVLRQGVQGISDLIAVSGEVNLDFADVKTIMSNQGSALMGIGVSSGENRAVEAAKKAISSPLLETSIVGAQGVLMNITGGESLSLFEAQEAADIVQDAADEDVNMIFGTVINPELQDEIVVTVIATGFDDKPTSHGRKSGSTGFGTSVNTSSNATSKDESFTSNSSNAQATDSVSERTHTTKEDDIPSFIRNREERRSRRTRR
notes: FtsZ, tubulin homolog, Staphylococcus aureus; Polymerised with GMPCPP in the co-sedimentation assay, unpolymerised (no GTP) in the filter retention assay

Experiments:
[1] = molecular target: T1, PcdA (Staphylococcus aureus, UniProt A0A0H2XHA0); test: inorganic phosphate release (PiColorLock); format: biochemical; conditions: 50 mM Tris-HCl pH 8.0, 150 mM KCl, 5 mM MgCl2, 37 °C, 0.25-4 mM NTP, 2.5 μM protein
T1 construct: gene SAUSA300_2094; full-length, untagged; His6-SUMO fusion (pTB146, pFRL159) cleaved with Ulp1; expressed in E. coli BL21(DE3)
T1 sequence (A0A0H2XHA0 1-457): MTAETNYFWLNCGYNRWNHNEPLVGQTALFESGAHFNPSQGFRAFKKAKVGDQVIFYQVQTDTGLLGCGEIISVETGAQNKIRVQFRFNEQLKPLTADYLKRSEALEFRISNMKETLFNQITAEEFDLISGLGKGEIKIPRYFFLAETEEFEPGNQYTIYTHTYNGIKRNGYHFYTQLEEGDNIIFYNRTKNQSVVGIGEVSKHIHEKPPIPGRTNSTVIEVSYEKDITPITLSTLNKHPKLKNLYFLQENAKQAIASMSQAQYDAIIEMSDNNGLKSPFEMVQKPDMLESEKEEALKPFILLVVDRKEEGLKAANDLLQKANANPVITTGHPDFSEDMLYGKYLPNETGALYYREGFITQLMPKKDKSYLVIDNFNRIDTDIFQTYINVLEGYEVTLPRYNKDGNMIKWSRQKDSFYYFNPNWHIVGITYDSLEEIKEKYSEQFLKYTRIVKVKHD

[2] = molecular target: the molecule itself; test: co-sedimentation; with 2 mM GMPCPP; 30 μM FtsZ with or without PcdA (5 μM in the legend, 10 μM in the methods); 20 mM HEPES pH 7.5, 140 mM KCl, 5 mM MgCl2; 10 min at 37 °C, then 30 min at 129,000 × g; supernatant and pellet on SDS-PAGE, Coomassie

| Molecule | kcat [1] | binding result [2] |
| --- | --- | --- |
| Nc1ncnc2c1ncn2[C@@H]1O[C@H](COP(=O)(O)OP(=O)(O)OP(=O)(O)O)[C@@H](O)[C@H]1O [ATP] | Incubation of increasing concentrations of either ATP or GTP with PcdA produced saturation curves | – |
| Nc1nc2c(ncn2[C@@H]2O[C@H](COP(=O)(O)OP(=O)(O)OP(=O)(O)O)[C@@H](O)[C@H]2O)c(=O)[nH]1 [GTP] | Incubation of increasing concentrations of either ATP or GTP with PcdA produced saturation curves | – |
| B1 | – | binds |
